Measured values from ChEMBL document CHEMBL4330108, “The association between anti-tumor potency and structure-activity of protein-kinases inhibitors based on quinazoline molecular skeleton” (Bioorg Med Chem, 2019).
One block for each molecule: values may come before it.

Key:
Histone deacetylase 1 = Histone deacetylase 1 (Homo sapiens, UniProt Q13547); test: Inhibition of HDAC1 (unknown origin) using HDAC substrate by AFC probe based immunoprecipitation assay
[1] = Inhibition of bovine brain PI3K using phosphatidylinositol as substrate preincubated for 5 mins followed by [gamma-32P]ATP addition and measured after 10 mins by liquid scintillation counting method; design: species or system Bos taurus
[2] = molecular target: Serine/threonine-protein kinase B-raf (Homo sapiens) (UniProt P15056); test: Inhibition of wild-type B-Raf (unknown origin) at 10 uM relative to control
[3] = molecular target: Vascular endothelial growth factor receptor 1 (Homo sapiens, UniProt P17948); test: Inhibition of VEGFR1 (unknown origin)
[4] = molecular target: Vascular endothelial growth factor receptor 3 (Homo sapiens, UniProt P35916); test: Inhibition of VEGFR3 (unknown origin)
[5] = molecular target: T1, Vascular endothelial growth factor receptor 2 (Homo sapiens, UniProt P35968)
[6] = molecular target: T1, Vascular endothelial growth factor receptor 2; test: Inhibition of VEGFR2 (unknown origin) using FAM-labelled peptide as substrate measured after 10 mins
[7] = molecular target: Epidermal growth factor receptor (Homo sapiens, UniProt P00533); test: Inhibition of EGFR (unknown origin)
[8] = molecular target: Receptor tyrosine-protein kinase erbB-2 (Homo sapiens, UniProt P04626); test: Inhibition of HER2 (unknown origin)
[9] = molecular target: Serine/threonine-protein kinase B-raf (Homo sapiens, UniProt P15056, V600E); test: Inhibition of recombinant human GST-fused B-Raf V600E mutant using MEK1 as substrate measured after 60 mins by HTRF assay
[10] = Inhibition of PI3K (unknown origin) using PIP2 as substrate measured after 2 hrs by luciferase-luciferin […] assay; design: species or system Homo sapiens
[11] = Inhibition of PI3K (unknown origin); design: species or system Homo sapiens

Sequence of Vascular endothelial growth factor receptor 3 (P35916 whole entry): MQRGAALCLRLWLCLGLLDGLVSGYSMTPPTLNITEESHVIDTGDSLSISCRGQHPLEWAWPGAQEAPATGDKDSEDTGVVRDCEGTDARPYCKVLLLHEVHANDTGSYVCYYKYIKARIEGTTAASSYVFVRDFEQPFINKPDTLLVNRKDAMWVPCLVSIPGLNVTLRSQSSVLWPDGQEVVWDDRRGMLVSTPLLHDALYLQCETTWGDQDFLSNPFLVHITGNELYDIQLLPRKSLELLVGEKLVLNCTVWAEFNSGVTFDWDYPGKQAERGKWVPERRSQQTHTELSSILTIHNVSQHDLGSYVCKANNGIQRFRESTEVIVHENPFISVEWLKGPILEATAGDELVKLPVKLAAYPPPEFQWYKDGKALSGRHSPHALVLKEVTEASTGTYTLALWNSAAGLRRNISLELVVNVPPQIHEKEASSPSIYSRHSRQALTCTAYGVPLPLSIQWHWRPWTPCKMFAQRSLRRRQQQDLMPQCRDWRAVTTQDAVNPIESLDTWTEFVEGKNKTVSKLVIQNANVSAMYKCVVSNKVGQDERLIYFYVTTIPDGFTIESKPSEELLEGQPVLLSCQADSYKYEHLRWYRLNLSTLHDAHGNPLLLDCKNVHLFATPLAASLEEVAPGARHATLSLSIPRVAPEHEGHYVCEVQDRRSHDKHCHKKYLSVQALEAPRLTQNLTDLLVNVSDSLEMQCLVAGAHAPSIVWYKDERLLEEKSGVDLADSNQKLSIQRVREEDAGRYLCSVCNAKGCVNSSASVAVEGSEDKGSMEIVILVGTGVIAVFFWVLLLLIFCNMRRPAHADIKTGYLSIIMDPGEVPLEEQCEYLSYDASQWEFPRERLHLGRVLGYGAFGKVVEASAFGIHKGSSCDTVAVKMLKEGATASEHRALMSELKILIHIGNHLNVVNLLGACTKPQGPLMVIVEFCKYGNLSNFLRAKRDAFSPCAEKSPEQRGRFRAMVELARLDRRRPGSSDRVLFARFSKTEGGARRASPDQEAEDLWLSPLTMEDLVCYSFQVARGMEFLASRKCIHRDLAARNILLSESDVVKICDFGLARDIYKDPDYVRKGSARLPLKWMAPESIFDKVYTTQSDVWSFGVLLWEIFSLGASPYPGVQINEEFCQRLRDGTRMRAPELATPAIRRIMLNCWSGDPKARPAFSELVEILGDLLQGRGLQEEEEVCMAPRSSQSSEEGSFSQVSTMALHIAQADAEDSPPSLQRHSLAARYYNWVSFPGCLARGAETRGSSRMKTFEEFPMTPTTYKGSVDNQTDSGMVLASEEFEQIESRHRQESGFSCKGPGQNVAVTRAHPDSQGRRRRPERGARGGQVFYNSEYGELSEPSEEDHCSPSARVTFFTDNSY
Sequence of Vascular endothelial growth factor receptor 1 (P17948 whole entry): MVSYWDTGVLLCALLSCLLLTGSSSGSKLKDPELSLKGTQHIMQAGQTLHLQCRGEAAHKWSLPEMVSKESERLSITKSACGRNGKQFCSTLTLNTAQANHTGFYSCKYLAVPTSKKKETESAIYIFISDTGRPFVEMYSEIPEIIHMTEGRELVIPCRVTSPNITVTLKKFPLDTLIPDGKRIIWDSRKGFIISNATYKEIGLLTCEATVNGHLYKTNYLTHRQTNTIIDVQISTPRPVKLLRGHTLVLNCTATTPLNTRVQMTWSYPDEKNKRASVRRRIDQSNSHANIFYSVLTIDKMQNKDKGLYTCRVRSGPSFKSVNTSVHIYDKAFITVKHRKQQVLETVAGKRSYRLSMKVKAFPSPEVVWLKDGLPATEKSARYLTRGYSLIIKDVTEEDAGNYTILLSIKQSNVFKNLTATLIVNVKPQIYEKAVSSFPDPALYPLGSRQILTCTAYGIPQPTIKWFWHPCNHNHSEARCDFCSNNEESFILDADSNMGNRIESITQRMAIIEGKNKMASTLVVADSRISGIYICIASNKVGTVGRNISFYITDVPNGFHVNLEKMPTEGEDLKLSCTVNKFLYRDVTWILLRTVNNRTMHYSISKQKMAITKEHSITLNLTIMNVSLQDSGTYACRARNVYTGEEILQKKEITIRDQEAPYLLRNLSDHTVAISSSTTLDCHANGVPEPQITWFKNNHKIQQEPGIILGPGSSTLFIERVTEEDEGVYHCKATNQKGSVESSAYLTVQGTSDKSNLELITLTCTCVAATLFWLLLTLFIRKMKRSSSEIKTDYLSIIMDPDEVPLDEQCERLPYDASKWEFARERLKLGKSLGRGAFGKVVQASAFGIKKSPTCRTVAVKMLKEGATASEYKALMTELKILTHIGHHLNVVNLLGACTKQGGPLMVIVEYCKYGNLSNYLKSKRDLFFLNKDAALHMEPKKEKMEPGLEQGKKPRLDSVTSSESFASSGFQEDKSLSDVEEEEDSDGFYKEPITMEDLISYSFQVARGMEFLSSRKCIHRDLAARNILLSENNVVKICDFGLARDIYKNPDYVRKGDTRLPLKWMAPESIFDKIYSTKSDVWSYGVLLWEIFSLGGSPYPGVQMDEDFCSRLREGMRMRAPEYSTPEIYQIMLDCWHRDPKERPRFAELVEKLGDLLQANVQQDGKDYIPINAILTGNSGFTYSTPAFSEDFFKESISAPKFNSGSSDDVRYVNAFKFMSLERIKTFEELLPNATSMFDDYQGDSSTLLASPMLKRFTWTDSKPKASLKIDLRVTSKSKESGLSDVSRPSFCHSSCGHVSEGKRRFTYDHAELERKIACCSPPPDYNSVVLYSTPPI
T1 sequence (P35968 whole entry): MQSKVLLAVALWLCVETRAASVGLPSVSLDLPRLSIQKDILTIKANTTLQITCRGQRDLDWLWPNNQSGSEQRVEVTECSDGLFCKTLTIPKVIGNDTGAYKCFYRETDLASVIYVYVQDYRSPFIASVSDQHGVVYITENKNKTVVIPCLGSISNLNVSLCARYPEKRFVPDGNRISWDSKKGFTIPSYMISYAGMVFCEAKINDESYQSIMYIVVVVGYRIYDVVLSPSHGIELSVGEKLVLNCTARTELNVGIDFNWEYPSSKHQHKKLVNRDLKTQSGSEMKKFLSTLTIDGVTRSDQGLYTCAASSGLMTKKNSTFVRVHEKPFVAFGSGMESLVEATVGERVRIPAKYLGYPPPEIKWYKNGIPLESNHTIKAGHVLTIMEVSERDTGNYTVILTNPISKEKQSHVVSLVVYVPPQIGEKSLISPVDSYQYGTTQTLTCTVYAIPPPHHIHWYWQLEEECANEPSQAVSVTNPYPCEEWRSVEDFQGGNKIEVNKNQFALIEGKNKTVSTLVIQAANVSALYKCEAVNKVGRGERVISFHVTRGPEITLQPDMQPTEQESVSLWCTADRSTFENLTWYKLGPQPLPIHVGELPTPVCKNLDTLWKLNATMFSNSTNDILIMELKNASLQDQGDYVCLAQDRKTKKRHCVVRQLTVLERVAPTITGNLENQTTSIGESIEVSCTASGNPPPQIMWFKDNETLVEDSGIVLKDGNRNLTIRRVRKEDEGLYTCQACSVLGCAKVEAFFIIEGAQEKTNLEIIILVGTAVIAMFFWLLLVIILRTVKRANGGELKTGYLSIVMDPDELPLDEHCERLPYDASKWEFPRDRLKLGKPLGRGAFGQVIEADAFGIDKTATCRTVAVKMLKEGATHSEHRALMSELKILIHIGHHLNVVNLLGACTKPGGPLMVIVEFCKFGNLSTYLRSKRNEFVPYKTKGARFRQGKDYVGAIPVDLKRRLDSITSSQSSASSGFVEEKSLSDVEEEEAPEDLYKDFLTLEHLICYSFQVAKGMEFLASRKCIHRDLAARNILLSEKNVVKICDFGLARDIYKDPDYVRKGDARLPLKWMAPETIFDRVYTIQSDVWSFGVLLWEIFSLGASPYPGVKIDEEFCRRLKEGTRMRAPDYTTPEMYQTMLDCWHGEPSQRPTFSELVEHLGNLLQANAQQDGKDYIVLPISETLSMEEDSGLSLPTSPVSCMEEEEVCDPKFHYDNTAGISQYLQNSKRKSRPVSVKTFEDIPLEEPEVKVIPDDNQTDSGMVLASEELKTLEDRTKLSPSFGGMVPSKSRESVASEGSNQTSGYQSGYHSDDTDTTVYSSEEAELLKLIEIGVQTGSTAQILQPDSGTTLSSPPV
Sequence of Serine/threonine-protein kinase B-raf (Homo sapiens) (P15056 whole entry): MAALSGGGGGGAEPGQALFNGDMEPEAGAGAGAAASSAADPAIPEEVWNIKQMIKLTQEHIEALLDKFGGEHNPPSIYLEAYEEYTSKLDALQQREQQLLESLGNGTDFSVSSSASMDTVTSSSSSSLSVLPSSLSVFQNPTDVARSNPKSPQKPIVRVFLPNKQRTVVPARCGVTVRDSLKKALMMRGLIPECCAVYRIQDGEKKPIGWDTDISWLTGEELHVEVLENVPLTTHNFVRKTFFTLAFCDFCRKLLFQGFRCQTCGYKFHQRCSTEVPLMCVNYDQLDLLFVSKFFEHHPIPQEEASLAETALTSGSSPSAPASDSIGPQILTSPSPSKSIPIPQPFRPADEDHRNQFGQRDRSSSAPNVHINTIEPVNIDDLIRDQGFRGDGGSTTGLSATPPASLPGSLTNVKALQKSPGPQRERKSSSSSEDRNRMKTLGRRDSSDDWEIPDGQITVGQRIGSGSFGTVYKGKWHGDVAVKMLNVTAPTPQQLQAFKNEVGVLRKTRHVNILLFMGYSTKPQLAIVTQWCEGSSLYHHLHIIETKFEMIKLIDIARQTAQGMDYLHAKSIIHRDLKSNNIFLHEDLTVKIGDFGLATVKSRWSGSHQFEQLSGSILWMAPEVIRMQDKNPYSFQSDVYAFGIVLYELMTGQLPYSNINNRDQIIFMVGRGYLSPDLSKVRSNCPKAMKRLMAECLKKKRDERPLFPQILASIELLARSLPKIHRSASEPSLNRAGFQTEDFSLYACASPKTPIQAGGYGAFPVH

IC50 (Histone deacetylase 1): 0.178 µM
Structure (SMILES): COc1cc2ncnc(Nc3ccc(CC(=O)Nc4cc(-c5cccs5)ccc4N)cc3)c2cc1OC

IC50 [3]: 1.26 µM
Structure (SMILES): CCOc1cc2ncc(C#N)c(Nc3ccc(Cl)c(F)c3)c2cc1NC(=O)/C=C/CN(C)C

IC50 [4]: 0.0078 µM
IC50 [5]: 0.0305 µM
IC50 [3]: 0.0071 µM
Structure (SMILES): COc1cc2ncnc(Nc3ccc4c(c3)CCCN4C(=O)Nc3cccc(Cl)c3)c2cc1OC

IC50 [6]: 0.045 µM
Structure (SMILES): O=C(Nc1ccc(Nc2ccc([N+](=O)[O-])c3ncnc(O)c23)cc1)Nc1cccc(C(F)(F)F)c1

IC50 [11]: 0.1 to 10 µM
Structure (SMILES): c1ccc2c(c1)ccn2-c1ncnc2ccc(-c3ccc4[nH]ccc4c3)cc12

The next lines start with the molecule.

Structure (SMILES): O=c1cc(N2CCOCC2)oc2c(-c3ccccc3)cccc12 [LY-294002]
IC50 [1]: 1 µM

Structure (SMILES): CCOCCCOc1cc2ncnc(Oc3ccc(NC(=O)Nc4ccc(F)c(C(F)(F)F)c4)cc3)c2cc1N
inhibition [2]: 98.9%

Structure (SMILES): CCOc1cc2ncc(C#N)c(Nc3ccc(OCc4ccccn4)c(F)c3)c2cc1NC(=O)/C=C/CN(C)C
IC50 [7]: 0.092 µM
IC50 [8]: 0.059 µM

Structure (SMILES): COc1cc2ncnc(Nc3ccc4c(c3)CCCN4C(=O)Nc3ccc(C(C)=O)cc3)c2cc1OC
IC50 [4]: 0.0173 µM
IC50 [5]: 0.0301 µM
IC50 [3]: 0.0096 µM

Structure (SMILES): COc1cccc(NC(=O)N2CCCc3cc(Nc4ncnc5cc(OC)c(OC)cc45)ccc32)c1
IC50 [4]: 0.0142 µM
IC50 [5]: 0.0519 µM
IC50 [3]: 0.0055 µM

Structure (SMILES): Cc1cccc(NC(=O)Nc2ccc(Nc3ccc([N+](=O)[O-])c4ncnc(O)c34)cc2)c1
IC50 [6]: 0.078 µM

Structure (SMILES): O=C(Nc1ccc(Nc2ccc([N+](=O)[O-])c3ncnc(O)c23)cc1)Nc1cc(Cl)ccc1Cl
IC50 [6]: 0.042 µM

Structure (SMILES): O=C(Nc1ccc(Nc2ccc([N+](=O)[O-])c3ncnc(O)c23)cc1)Nc1cc(C(F)(F)F)ccc1Cl
IC50 [6]: 0.012 µM

Structure (SMILES): Cc1ccc(CC[C@@H]2CCN2C)c(NC(=O)Nc2cccc(Oc3ccc4nc[nH]c(=O)c4c3)c2)c1
IC50 [9]: 0.0039 µM

Structure (SMILES): Cc1cc(N2CCC(F)(F)C2)cc2c(N3CCc4ccc(C(=O)N5CCC(N)CC5)cc4C3)ncnc12
IC50 [10]: < 0.5 µM
